Positions of bridges follow the written chain, without caps; N, C: chain ends. Residues, ends and D or L forms follow the SMILES beside them. Chains are numbered I, II in the order given.
Key:
[1] = heat treatment (sterilization) of solutions; cited from earlier work
[2] = water solubility of the novel cystine compounds; format: physicochemical
Procedure: (§1) 0.5 g bis-(acetylglycyl)-L,L-cystine are dissolved in 50 ml distilled water. The pH is adjusted to 6.5 by the addition of a 1N sodium hydrogen carbonate solution and then diluted with distilled water to a volume of 100 ml. Of this solution, an HPLC chromatogram is made immediately. The solution is then heated on a boiling water bath.

[3] = heat sterilization stability of the novel cystine compounds; format: physicochemical; settings: for instance heating to 120° C. for 5 minutes
Procedure: So, for instance, infusion solutions are prepared by dissolving the purified peptide and the desired amino acid in distilled water. Mineral salts and other substances may further be added to these solutions. Prior to administration, they must be isotonically adjusted. Up to now, it has not been possible to sterilize such solutions in the usual manner (5 minutes, 120° C., pH 5.5 to 7.5) without the decomposition of the cystine-containing component. The novel peptides according to the invention permit a heat treatment of the above-mentioned infusion solution without the decomposition of the cystine derivative.

[4] = Testing of the water solubility and thermal stability of bis-(acetylglycyl)-L,L-cystine (HPLC after heating on boiling water bath); format: physicochemical; settings: 0.5 g in 100 ml water, pH 6.5, boiling water bath, after 10, 20 and 30 minutes of heating
Procedure: as §1

| solubility in water [2] | stability to heat sterilization [3] | change of HPLC chromatogram after heating [4] | Compound | resistance to heat treatment / thermal stability [1] |
| --- | --- | --- | --- | --- |
| – | – | – | N[C@@H](CSSC[C@H](N)C(=O)O)C(=O)O [L,L-cystine] | stable against heat treatment |
| – | – | – | N[C@@H](CS)C(=O)O [L-cysteine] | not resistant to heat treatment |
| well soluble in water | stable enough to be heat-sterilizable | does not show any essential changes | CC(=O)NCC(=O)N[C@@H](CSSC[C@H](NC(=O)CNC(C)=O)C(=O)O)C(=O)O [bis-(acetylglycyl)-L,L-cystine] (I: Ac-Gly-Cys-OH / II: Ac-Gly-Cys-OH; disulfide I:2-II:2) | – |

Reference: patent US4801579A, “Novel cystine compounds, their preparation and use” (Bleiberger Bergwerks Union, priority 1986, dated 1989)
